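A five-concentration, 48-hour dose response in 96-well plates underlies each endpoint, interpolated linearly between surrounding concentrations. GI50: concentration for 50% inhibition of growth. Definition used: TGI = concentration required for complete inhibition of growth.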
Assays:
Test in all cases: NCI-60 cell line screen, 48 h
786-0 renal = tested on: 786-0 renal
A498 renal = tested on: A498 renal
A549 NSCLC = tested on: A549 NSCLC
ACHN renal = tested on: ACHN renal
BT-549 breast = tested on: BT-549 breast
CAKI-1 renal = tested on: CAKI-1 renal
CCRF-CEM leukemia = tested on: CCRF-CEM leukemia
COLO 205 colon = tested on: COLO 205 colon
DU-145 prostate = tested on: DU-145 prostate
EKVX NSCLC = tested on: EKVX NSCLC
HCC-2998 colon = tested on: HCC-2998 colon
HCT-116 colon = tested on: HCT-116 colon
HCT-15 colon = tested on: HCT-15 colon
HL-60(TB) leukemia = tested on: HL-60(TB) leukemia
HOP-62 NSCLC = tested on: HOP-62 NSCLC
HOP-92 NSCLC = tested on: HOP-92 NSCLC
HS 578T breast = tested on: HS 578T breast
HT29 colon = tested on: HT29 colon
IGROV1 ovarian = tested on: IGROV1 ovarian
KM12 colon = tested on: KM12 colon
LOX IMVI melanoma = tested on: LOX IMVI melanoma
M14 melanoma = tested on: M14 melanoma
MALME-3M melanoma = tested on: MALME-3M melanoma
MCF7 breast = tested on: MCF7 breast
MDA-MB-231 breast = tested on: MDA-MB-231 breast
MDA-MB-435 = tested on: MDA-MB-435
MOLT-4 leukemia = tested on: MOLT-4 leukemia

Cc1ccc(O)c(NC(=O)c2cccc(Nc3ccnc(C(F)(F)F)c3)c2)c1
GI50 (786-0 renal): 8.22 µM | TGI (786-0 renal): 51.5 µM | GI50 (A498 renal): 5 µM | TGI (A498 renal): 20.5 µM | GI50 (A549 NSCLC): 5.09 µM | TGI (A549 NSCLC): 28 µM | GI50 (ACHN renal): 9.65 µM | TGI (ACHN renal): 48.8 µM | GI50 (BT-549 breast): 3.18 µM | TGI (BT-549 breast): 21.6 µM | GI50 (CAKI-1 renal): 11 µM | TGI (CAKI-1 renal): 31.8 µM | GI50 (CCRF-CEM leukemia): 1.82 µM | TGI (CCRF-CEM leukemia): 39.2 µM | GI50 (COLO 205 colon): 14.6 µM | TGI (COLO 205 colon): 33.7 µM | GI50 (DU-145 prostate): 16.4 µM | TGI (DU-145 prostate): 71.5 µM | GI50 (EKVX NSCLC): 3.37 µM | TGI (EKVX NSCLC): 59.4 µM | GI50 (HCC-2998 colon): 10.5 µM | TGI (HCC-2998 colon): 23.2 µM | GI50 (HCT-116 colon): 4.14 µM | TGI (HCT-116 colon): 17.8 µM | GI50 (HCT-15 colon): 15.5 µM | TGI (HCT-15 colon): 42.8 µM | GI50 (HL-60(TB) leukemia): 0.592 µM | TGI (HL-60(TB) leukemia): 11.1 µM | GI50 (HOP-62 NSCLC): 11.6 µM | TGI (HOP-62 NSCLC): 28.9 µM | GI50 (HOP-92 NSCLC): 2.24 µM | TGI (HOP-92 NSCLC): 21.1 µM | GI50 (HS 578T breast): 16.1 µM | TGI (HS 578T breast): 40.3 µM | GI50 (HT29 colon): 15.7 µM | TGI (HT29 colon): 33.4 µM | GI50 (IGROV1 ovarian): 12.6 µM | TGI (IGROV1 ovarian): 28.1 µM | GI50 (KM12 colon): 11 µM | TGI (KM12 colon): 24.8 µM | GI50 (LOX IMVI melanoma): 9.46 µM | TGI (LOX IMVI melanoma): 27.4 µM | GI50 (M14 melanoma): 7.55 µM | TGI (M14 melanoma): 22.3 µM | GI50 (MALME-3M melanoma): 19.2 µM | TGI (MALME-3M melanoma): 78.5 µM | GI50 (MCF7 breast): 4.21 µM | TGI (MCF7 breast): 26.5 µM | GI50 (MDA-MB-231 breast): 11.6 µM | TGI (MDA-MB-231 breast): 44.8 µM | GI50 (MDA-MB-435): 6.65 µM | TGI (MDA-MB-435): 25.9 µM | GI50 (MOLT-4 leukemia): 2.02 µM | TGI (MOLT-4 leukemia): 8.15 µM

Reference: PubChem BioAssay (NCI)
